In publication PMC8389922, “First-in-Class Cyclic Temporin L Analogue: Design, Synthesis, and Antimicrobial Assessment” (Journal of Medicinal Chemistry, 2021):
In brackets after ≈: the same amount, converted by molar mass. Bridge positions count the residues as written; N and C are the ends. Square brackets hold non-standard residues; d marks the D form. Triazole bridges read from a SMILES are 1,4-linked. Peptide text beside a SMILES is read from it. dLys(N3) = [N-]=[N+]=NCCCC[C@@H](N)C(=O)O; Lys(N3) = [N-]=[N+]=NCCCC[C@H](N)C(=O)O; Pra = C#CC[C@H](N)C(=O)O

Tests used:
circular dichroism = details: water; pH ns; 25 °C; 50 uM
E. coli ATCC 25922 = assay type: cell-based, Escherichia coli
Experimental: (§1) The antimicrobial activity of peptides 9–26 was assessed against a range of reference bacterial strains such as S. aureus ATCC 25923, Staphylococcus epidermidis ATCC 12228, Bacillus megaterium Bm11, E. coli ATCC 25922, P. aeruginosa ATCC 27853, and A. baumannii ATCC 19606 by the broth microdilution assay to determine the minimal growth inhibitory concentration (MIC, Table 1).[59] First, we evaluated the effects produced by the lactam bridge between Lys and Glu residues placed at different positions along the peptide sequence of reference 9. […] When the i,i+7 cyclization strategy was applied (20–23), a dramatic decrease of bacterial inhibition activity was observed. Specifically, the peptides 20, 22, and 23 only affected the microbial growth of the Gram-positive B. megaterium Bm11, at 12.5 μM. […] Peptide 25, which differs from 9 by the presence of an olefin bridge rather than lactam one, dramatically lost the activity (MIC > 100 μM) vs both Gram-positive and Gram-negative strains.
(§2) The determination of MICs was conducted as previously reported.[61] Aliquots of 50 μL of bacterial culture appropriately diluted were added to each well of a 96-well plate to reach a final cell density of 1 × 10^6 CFU/mL and a final peptide concentration ranging from 100 to 0.78 μM (final volume 100 μL).

A. baumannii ATCC 19606 = assay type: cell-based, Acinetobacter baumannii
Experimental: as §1, §2

S. aureus ATCC 25923 = assay type: cell-based, Staphylococcus aureus
Experimental: as §1, §2

[1] = tested on: S. epidermidis ATCC 12228; assay type: cell-based, Staphylococcus epidermidis
Experimental: as §1, §2

P. aeruginosa ATCC 27853 = assay type: cell-based, Pseudomonas aeruginosa
Experimental: as §1, §2

B. megaterium Bm11 = assay type: cell-based, Bacillus megaterium
Experimental: as §1, §2

| MIC E. coli ATCC 25922 (E. coli ATCC 25922) [µM] | MIC A. baumannii ATCC 19606 (A. baumannii ATCC 19606) [µM] | MIC S. aureus ATCC 25923 (S. aureus ATCC 25923) [µM] | MIC S. epidermidis ATCC 12228 [1] [µM] | MIC P. aeruginosa ATCC 27853 (P. aeruginosa ATCC 27853) [µM] | MIC B. megaterium Bm11 (B. megaterium Bm11) [µM] | SMILES | helicity (circular dichroism) [%] |
| --- | --- | --- | --- | --- | --- | --- | --- |
|  |  |  |  |  |  | CC[C@H](C)[C@H](NC(=O)[C@H](CCCNC(=N)N)NC(=O)[C@@H]1CCCCn2cc(nn2)C[C@H](NC(=O)[C@H](Cc2ccccc2)NC(=O)[C@H](Cc2c[nH]c3ccccc23)NC(=O)[C@@H]2CCCN2C(=O)[C@@H](NC(=O)[C@@H](N)Cc2ccccc2)C(C)C)C(=O)N[C@@H](CCCCN)C(=O)N[C@@H](Cc2ccccc2)C(=O)N[C@H](CC(C)C)C(=O)N1)C(=O)N[C@@H](CC(C)C)C(N)=O | 6 |
| 50 (≈ 79.9 µg/mL) | 25 (≈ 39.9 µg/mL) | >100 | >100 | >100 | 25 (≈ 39.9 µg/mL) | CC(C)C[C@H](NC(=O)[C@@H]1CCCCn2cc(nn2)C[C@H](NC(=O)[C@H](CCCCN)NC(=O)[C@H](CO)NC(=O)[C@H](Cc2ccccc2)NC(=O)[C@H](Cc2c[nH]c3ccccc23)NC(=O)[C@@H]2CCCN2C(=O)[C@@H](NC(=O)[C@@H](N)Cc2ccccc2)C(C)C)C(=O)N[C@H](CC(C)C)C(=O)NCC(=O)N[C@@H](CCCNC(=N)N)C(=O)N1)C(N)=O [compound 16] (H-FVPWFSK[Pra][dL]GR[Lys(N3)]L-NH2; triazole 8-12) |  |
| 100 (≈ 160 µg/mL) | 100 (≈ 160 µg/mL) | >100 | >100 | >100 | 6.25 (≈ 9.99 µg/mL) | CC[C@H](C)[C@H](NC(=O)[C@H](CCCNC(=N)N)NC(=O)CNC(=O)[C@H]1CCCCn2cc(nn2)C[C@H](NC(=O)[C@H](Cc2c[nH]c3ccccc23)NC(=O)[C@@H]2CCCN2C(=O)[C@@H](NC(=O)[C@@H](N)Cc2ccccc2)C(C)C)C(=O)N[C@@H](CO)C(=O)N[C@@H](CCCCN)C(=O)N[C@@H](Cc2ccccc2)C(=O)N1)C(=O)N[C@@H](CC(C)C)C(N)=O [compound 18] (H-FVPW[Pra]SKF[dLys(N3)]GRIL-NH2; triazole 5-9) |  |
| >100 | >100 | >100 | >100 | >100 | 12.5 (≈ 19.1 µg/mL) | CC[C@H](C)[C@H](NC(=O)[C@H](CCCNC(=N)N)NC(=O)CNC(=O)[C@@H](CC(C)C)NC(=O)[C@@H]1CCCCn2cc(nn2)C[C@H](NC(=O)[C@@H]2CCCN2C(=O)[C@@H](NC(=O)[C@@H](N)Cc2ccccc2)C(C)C)C(=O)N[C@@H](Cc2ccccc2)C(=O)N[C@@H](CO)C(=O)N[C@@H](CCCCN)C(=O)N1)C(=O)N[C@@H](CC(C)C)C(N)=O [compound 19] (H-FVP[Pra]FSK[Lys(N3)][dL]GRIL-NH2; triazole 4-8) |  |
| >100 | >100 | >100 | >100 | >100 | 12.5 (≈ 20.6 µg/mL) | CC[C@H](C)[C@@H]1NC(=O)[C@H](CCCNC(=N)N)NC(=O)CNC(=O)[C@@H](CC(C)C)NC(=O)[C@H](Cc2ccccc2)NC(=O)[C@H](CCCCN)NC(=O)[C@@H](NC(=O)[C@H](Cc2ccccc2)NC(=O)[C@H](Cc2c[nH]c3ccccc23)NC(=O)[C@@H]2CCCN2C(=O)[C@@H](NC(=O)[C@@H](N)Cc2ccccc2)C(C)C)CCCCNC(=O)CC[C@@H](C(N)=O)NC1=O [compound 20] (H-FVPWFKKF[dL]GRIE-NH2; lactam 6-13) |  |
| >100 | >100 | >100 | >100 | >100 | 100 (≈ 159 µg/mL) | CC(C)C[C@H](NC(=O)[C@@H]1CCC(=O)NCCCC[C@H](NC(=O)[C@H](Cc2c[nH]c3ccccc23)NC(=O)[C@@H]2CCCN2C(=O)[C@@H](NC(=O)[C@@H](N)Cc2ccccc2)C(C)C)C(=O)N[C@@H](CO)C(=O)N[C@@H](CCCCN)C(=O)N[C@@H](Cc2ccccc2)C(=O)N[C@H](CC(C)C)C(=O)NCC(=O)N[C@@H](CCCNC(=N)N)C(=O)N1)C(N)=O [compound 21] (H-FVPWKSKF[dL]GREL-NH2; lactam 5-12) |  |
| >100 | 100 (≈ 166 µg/mL) | >100 | >100 | >100 | 12.5 (≈ 20.7 µg/mL) | CC[C@H](C)[C@@H]1NC(=O)[C@H](CCCNC(=N)N)NC(=O)CNC(=O)[C@@H](CC(C)C)NC(=O)[C@H](Cc2ccccc2)NC(=O)[C@H](CCCCN)NC(=O)[C@@H](NC(=O)[C@H](Cc2ccccc2)NC(=O)[C@H](Cc2c[nH]c3ccccc23)NC(=O)[C@@H]2CCCN2C(=O)[C@@H](NC(=O)[C@@H](N)Cc2ccccc2)C(C)C)Cc2cn(nn2)CCCC[C@@H](C(N)=O)NC1=O [compound 22] (H-FVPWF[Pra]KF[dL]GRI[Lys(N3)]-NH2; triazole 6-13) |  |
| 25 (≈ 41.7 µg/mL) | 25 (≈ 41.7 µg/mL) | 100 (≈ 167 µg/mL) | 6.25 (≈ 10.4 µg/mL) | >100 | 1.56 (≈ 2.6 µg/mL) | CC[C@H](C)[C@H](NC(=O)[C@H](CCCNC(=N)N)NC(=O)[C@@H]1CSSC[C@H](NC(=O)[C@H](Cc2ccccc2)NC(=O)[C@H](Cc2c[nH]c3ccccc23)NC(=O)[C@@H]2CCCN2C(=O)[C@@H](NC(=O)[C@@H](N)Cc2ccccc2)C(C)C)C(=O)N[C@@H](CCCCN)C(=O)N[C@@H](Cc2ccccc2)C(=O)N[C@H](CC(C)C)C(=O)N1)C(=O)N[C@@H](CC(C)C)C(N)=O [compound 26] (H-FVPWFCKF[dL]CRIL-NH2; disulfide 6-10) | 8 |
